Among the data in PubChem BioAssay AID179 (DTP/NCI, 2004) are EC50, IC50 and outcome values, retold here.

The subject of this assay is CEM cells HIV-1 protection, formazan growth assay. Nature of the assay: NCI AIDS Antiviral Assay. The note with it: for IC50: measured here: growth of uninfected CEM cells. In a few lines:
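CEM (human) cells, HIV-1 infected vs uninfected, 5-point dosing, formazan growth read-out. Retest threshold 50% protection.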

Activity calls are given as the source filed them.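 Rule for the calls: active = compounds giving half or more protection of infected cells from virus-caused growth loss, again on retest; inactive = the rest.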 Where a SMILES comes first, the peptide text is derived from it. [ ]: non-standard residue; d: D form. The star is where a group is joined. ξ: configuration not given here. ξPhe(4-NO2) = NC(Cc1ccc([N+](=O)[O-])cc1)C(=O)O; Boc = CC(C)(C)OC(=O)*

One may read the EC50 as the concentration needed to bring the measured effect to its halfway point. The IC50 is the concentration that inhibits the measured activity by half.

As for `C1=CC2CCC1C1CN(CCCN3CCOCC3)CC21` (stereo unspecified), the EC50 is greater than 708 µM and the IC50 was greater than 708 µM. `C/C(=N\N=C(N)N)c1ccccc1`: the result was inactive. On to `COc1ccc(/C=C(\C#N)c2ccc(OC)c(OC)c2)cc1`, for which the EC50 is greater than 2 µM and the IC50 was determined as 0.257 µM. As to `S=C(c1c[nH]c2ccccc12)N1CCCCC1`, the EC50 is greater than 200 µM and the IC50 was 44.7 µM. For `CC(C)CCC[C@@H](C)C1CCC2[C@@H]3CC=C4C[C@@H](OP(=O)(O)O)CC[C@]4(C)C3CC[C@@]21C` (stereo partly specified), the EC50 is greater than 28.2 µM and the half-inhibitory concentration (IC50) was greater than 28.2 µM. `COc1cc(/C=C2/SC(c3ccccc3)N(c3cccc([N+](=O)[O-])c3)C2=O)cc(OC)c1OC` (stereo unspecified): the EC50 is greater than 200 µM and the IC50 turned out to be 107 µM. The corresponding values for `CC(=O)c1nc2ccccc2n1CC(=O)c1ccc(Cl)cc1` are greater than 200 µM and 1.35 µM.

With `COc1cc2c(cc1OC)C1c3ccccc3C(C#N)(C2)N(C(=O)c2ccccc2)C1O` (stereo unspecified), the result was inactive. `CCOC(=O)CCSS(=O)(=O)c1ccccc1`: the EC50 is greater than 200 µM and the IC50 was 35.5 µM. The corresponding values for `CCOC(=O)c1cn2c(nc1=O)N[C@H]1CCCC[C@@H]12` are greater than 200 µM and greater than 200 µM. In turn, `O=C1C=Cc2c(Cl)sc(Cl)c21` registered an EC50 greater than 200 µM and an IC50 of 0.794 µM.

For `Nc1ncnc2c1ncn2C1CC(CO)C(CO)C1` (stereo unspecified), the EC50 was greater than 95.5 µM and the IC50 is greater than 95.5 µM. Regarding `O=NNc1ccc(S(=O)c2ccccc2)cn1` (stereo unspecified), the EC50 was greater than 200 µM and the IC50 is greater than 200 µM. Take `Nn1c(CCCCCCCCc2nnc(COc3ccc4ccccc4c3O)n2N)nnc1COc1ccc2ccccc2c1O`: the EC50 is greater than 200 µM and the IC50 was determined as 2.45 µM.

Take `Cn1c2c(c3ccccc31)C1CCCCC1C1C(=O)NC(=O)C21` (stereo unspecified): the result was inactive.

As for `Cc1c(-c2coc(-c3ccc([N+](=O)[O-])cc3)n2)c(=O)n(-c2ccccc2)n1C`, the EC50 is greater than 36.3 µM and the IC50 is greater than 36.3 µM. For `O=c1ccn(C2CC(F)C(CO)S2)c(=O)[nH]1` (stereo unspecified), the EC50 was greater than 25.1 µM and the IC50 was greater than 25.1 µM. Turning to `O=Nc1c(N=O)c(N=O)c(N=O)c(N=O)c1N=O`, the EC50 is greater than 20 µM and the IC50 was determined as 2.34 µM. Consider `O=C(Cc1nc2ccc(C(=O)c3ccccc3)cc2[nH]c1=O)C(=O)Nc1ccc(Br)cc1`, for which the EC50 is greater than 14.8 µM and the half-maximal inhibitory concentration (IC50) is greater than 14.8 µM. With `CN(C)CCSc1nnc(-c2cccs2)c2ccccc12`, the EC50 is greater than 794 µM and the IC50 was 40.7 µM. The corresponding values for `CNS(=O)(=O)NN(C)S(=O)(=O)c1ccc2ccccc2c1` are greater than 759 µM and 110 µM. The corresponding values for `CCOC(=O)c1nc2c(Cl)c3ncccc3cc2[nH]c1=O` are greater than 200 µM and 12 µM. The corresponding values for `C/C(O)=C(\N=O)C(=O)Nc1ccc(Cl)cc1Cl` are greater than 339 µM and 145 µM. Regarding `OCCN(CCO)c1ccc2c(C(F)(F)F)cc(C(F)(F)F)nc2n1`, the EC50 is greater than 200 µM and the IC50 was 148 µM. The corresponding values for `O=[N+]([O-])/C=C/COCc1cc2c(cc1Br)OCO2` are greater than 200 µM and 9.33 µM. The corresponding values for `CC(=O)On1c(-c2ccccc2-c2nc3ccccc3n2OC(C)=O)nc2ccccc21` are greater than 200 µM and 77.6 µM. The corresponding values for `CC1=NNC(N)=N/C1=C\C(Sc1ccc(Cl)cc1)c1ccc([N+](=O)[O-])cc1` (stereo unspecified) are greater than 117 µM and 30.9 µM.

`CN(C)CCCN1CCc2c([nH]c3ccccc23)C1c1cccnc1` (stereo unspecified): the EC50 was greater than 107 µM and the half-maximal inhibitory concentration (IC50) is greater than 107 µM. Take `Cc1cc(-c2cc(C)c(N)c(S(=O)(=O)O)c2)cc(S(=O)(=O)O)c1N`: the outcome was inactive.

On to `CSc1nnc2c(=O)n(C)c(=O)n(C)c2n1`, for which the EC50 is greater than 200 µM and the IC50 is 43.7 µM. The corresponding values for `CCOC(=O)c1nc(SC)sc1NC(=O)c1ccccc1N` are greater than 200 µM and greater than 200 µM. The corresponding values for `COc1ccc(C2SC(=S)N(c3ccc(Cl)cc3)N2c2ccc(Cl)cc2)cc1` (stereo unspecified) are greater than 200 µM and 24 µM. The corresponding values for `CC1=C2NCN(C)N=C2C(C#N)(C#N)C1(C#N)C#N` are greater than 200 µM and 10.5 µM. As to `Nc1nc(N)nc(-c2ccccc2-c2nc(N)nc(N)n2)n1`, the EC50 is greater than 200 µM and the IC50 is greater than 200 µM. Take `Cn1c(=O)c2c(=O)c(=O)[nH][nH]c2n(C)c1=O`: the EC50 is greater than 200 µM and the IC50 was greater than 200 µM. On to `C[C@H](N[C@H]1CCC[C@]1(O)C#Cc1ccc2c(c1)OCO2)c1ccccc1`, for which the EC50 was greater than 50.1 µM and the IC50 amounted to 28.8 µM. On to `CC(C)OP(=S)(NC(=S)c1ccccc1)OC(C)C`, for which the EC50 is greater than 741 µM and the IC50 worked out at 178 µM. The corresponding values for `Cn1c(=O)oc2cc(Br)ccc21` are greater than 200 µM and greater than 200 µM. Take `COc1ccc2c3c1C(=O)CCC3CO2` (stereo unspecified): the result was inactive. Same read-out and setting: next, `CO[C@]12CCC(=O)N1C=Cc1c2[nH]c2ccccc12`: “inactive”.

As to `CCNC(=O)CNC(=O)C(Cc1ccc([N+](=O)[O-])cc1)NC(=O)OC(C)(C)C` (stereo unspecified) (Boc-[ξPhe(4-NO2)]-Gly-NHEt), the EC50 was 162 µM and the IC50 was determined as 813 µM. The corresponding values for `CS(=O)(=O)NNS(=O)(=O)c1cccc([N+](=O)[O-])c1` are greater than 617 µM and greater than 617 µM. For the compound `COC(=O)/C(C#N)=C1\N=NNN1CCCN1CCOCC1`, the outcome was inactive. Take `CCOC(=O)/C(C)=C(/O)C(=O)OCC`: the EC50 is 214 µM and the IC50 came to 1120 µM.

In the case of `OCCN1CCN(CCCN2c3cc(Cl)ccc3Sc3ccsc32)CC1`, the EC50 is greater than 316 µM and the IC50 worked out at 15.5 µM.

On to `C/C(N)=C/C(=O)c1[nH]c(C(=O)O)cc1C1CCN(Cc2ccccc2)C1=O` (stereo unspecified), for which the EC50 was greater than 200 µM and the IC50 amounted to 31.6 µM.

For the compound `COc1c(C)c2c(c(O)c1C/C=C(\C)CCC(=O)O)C(=O)OC2`, the EC50 is greater than 7.76 µM and the 50% inhibitory concentration (IC50) turned out to be 0.0355 µM.

In the case of `N#CC(C(=O)CCC(=O)Nc1ccc(Cl)cc1)c1ccccc1Cl` (stereo unspecified), the EC50 was greater than 186 µM and the half-maximal inhibitory concentration (IC50) is greater than 186 µM. As for `N#CN=CN1CCN(c2ccccn2)CC1`, the EC50 is greater than 537 µM and the IC50 is greater than 537 µM. Consider `CC(=O)OCC(C)C1=C(OC(C)=O)C(=O)C2(C)C/C=C(/C)CC/C=C(\C)CCC(OC(C)=O)C(C)CCC12` (stereo unspecified), for which the EC50 was greater than 200 µM and the IC50 was determined as 14.5 µM. The corresponding values for `CC12CC3CC(C)(C1)CC(SCCN)(C3)C2` are greater than 200 µM and 38 µM.

Consider `COC1OC2COC(c3ccccc3)OC2C2N=C(N)N([N+](=O)[O-])C12OS(C)(=O)=O` (stereo unspecified), for which the result was inactive. In the case of `COc1ccc(/C(=N/Nc2nc3ccccc3[nH]2)C(=O)O)cc1`, the EC50 was greater than 200 µM and the IC50 is greater than 200 µM. Consider `COC(=O)C(CC=O)C(=O)C(=O)Nc1cccc(C(F)(F)F)c1` (stereo unspecified), for which the EC50 is greater than 282 µM and the IC50 is greater than 282 µM. Regarding `Cc1csc2nc3c(cnn3C)c(=S)n12`, the EC50 was greater than 200 µM and the IC50 was determined as 38.9 µM. The corresponding values for `COCO[C@@H]1C[C@H]2C(=O)N(COC)c3ccccc3C(=O)N2C1` are greater than 200 µM and greater than 200 µM. The corresponding values for `COc1c(Cl)cc(C(=CCN[C@@H]2CC[C@@]3(C)[C@@H](CC[C@@H]4[C@@H]3CC[C@]3(C)[C@@H]([C@H](C)CCCC(C)C)CC[C@@H]43)C2)c2cc(Cl)c(OC)c(C(=O)O)c2)cc1C(=O)O` are greater than 100 µM and 61.7 µM. The corresponding values for `CC(=O)OC(Cn1cncn1)(Cn1cncn1)c1ccc(Cl)cc1Cl` are greater than 200 µM and greater than 200 µM. As to `CCN(CC)c1ccc(C(=C2C=CC(=[N+](CC)CC)C=C2)c2ccccc2)cc1`, the result was inactive.

For the compound `COC(=O)C1(Cc2ccccc2)Cc2ccccc2C1O` (stereo unspecified), the EC50 was greater than 200 µM and the concentration for half-maximal inhibition (IC50) was determined as 91.2 µM. The corresponding values for `C1=Nc2ccc(cc2)N=Cc2ccccc2OCc2cccc(n2)COc2ccccc21` are greater than 200 µM and greater than 200 µM. Take `CC(=O)O[C@H]1[C@@H]2[C@@H]3[C@@H](C[C@H]1C)[C@@H](C)CO[C@@]1(C)CC/C=C(/C)C[C@@H]2O[C@@H]31`: the EC50 was greater than 100 µM and the IC50 was greater than 100 µM. `CCOC(=O)c1c(NC(=S)Nc2ccc(C)cc2)sc2c1CCN(C)C2`: the EC50 was greater than 200 µM and the IC50 was greater than 200 µM. As for `O=P(O)(O)C(N=C(Nc1ccccc1)Nc1ccccc1)P(=O)(O)O`, the EC50 was greater than 100 µM and the half-maximal inhibitory concentration (IC50) was greater than 100 µM. With `CC(C)CCCC(C)[C@H]1CC[C@H]2[C@@H]3CC[C@H]4C[C@@H](CCC=C(c5cc(Cl)c(OCc6ccccc6B6OC(C)(C)C(C)(C)O6)c(C(=O)OCc6ccccc6B6OC(C)(C)C(C)(C)O6)c5)c5cc(Cl)c(OCc6ccccc6B6OC(C)(C)C(C)(C)O6)c(C(=O)OCc6ccccc6B6OC(C)(C)C(C)(C)O6)c5)CC[C@]4(C)[C@H]3CC[C@]12C` (stereo partly specified), the EC50 was greater than 126 µM and the half-inhibitory concentration (IC50) was greater than 126 µM.

Regarding `COc1cc(-c2ccc(N=Nc3cc4cc(S(=O)(=O)O)ccc4cc3O)c(OC)c2)ccc1N=Nc1cc2cc(S(=O)(=O)O)ccc2cc1O`, the EC50 is 17.4 µM and the IC50 came to 120 µM.

On to `CC1=C(/C=C/C(C)=C/C=C/C(C)=C/C=C/C=C(C)/C=C/C=C(C)/C=C/C=C(C)/C=C/C=C(\C)C(=O)O)C(C)(C)CCC1`, for which the EC50 was greater than 4.79 µM and the IC50 is greater than 4.79 µM. Take `C=C1CN(S(=O)(=O)c2ccc(C)cc2)CCN(C(=O)OC(C)(C)C)CCN(S(=O)(=O)c2ccc(C)cc2)C1`: the EC50 is greater than 200 µM and the IC50 worked out at 20 µM. The corresponding values for `COc1c(N2CCCCC2)c2c(=O)c3ccccc3oc2c2c3ccccc3n(C)c12` are 170 µM and 195 µM. The corresponding values for `COc1ccc(CCN(C)CCCC(C#N)(c2ccc(OC)c(OC)c2)C(C)C)cc1OC` (stereo unspecified) are greater than 200 µM and greater than 200 µM.
